# Source: PubChem BioAssay (NCI)
#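 Cultured in 96-well plates, cells were exposed to test compound for 48 hours across five concentrations. TGI: concentration producing complete growth inhibition.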 Where a SMILES comes first, the peptide text is derived from it. The star is where a group is joined. Fmoc = O=C(OCC1c2ccccc2-c2ccccc21)*; Boc = CC(C)(C)OC(=O)*
# Legend:
# Test in all cases: NCI tumour cell line growth inhibition, 48 h
# OVCAR-5 ovarian = system: OVCAR-5 ovarian
# SK-MEL-2 melanoma = system: SK-MEL-2 melanoma
# T-47D breast = system: T-47D breast
# SW-620 colon = system: SW-620 colon
# U251 CNS = system: U251 CNS
# HS 578T breast = system: HS 578T breast
# MALME-3M melanoma = system: MALME-3M melanoma
# BT-549 breast = system: BT-549 breast
# SK-MEL-5 melanoma = system: SK-MEL-5 melanoma
# OVCAR-8 ovarian = system: OVCAR-8 ovarian
Compound,TGI (OVCAR-5 ovarian) [µM],TGI (SK-MEL-2 melanoma) [µM],TGI (T-47D breast) [µM],TGI (SW-620 colon) [µM],TGI (U251 CNS) [µM],TGI (HS 578T breast) [µM],TGI (MALME-3M melanoma) [µM],TGI (BT-549 breast) [µM],TGI (SK-MEL-5 melanoma) [µM],TGI (OVCAR-8 ovarian) [µM]
Cc1ccc(OC2CC(n3cnc4ncnc(Cl)c43)OC2Oc2ccc(C)cc2)cc1 (stereo not given),58.3,32.2,28.8,> 100,> 100,76.9,> 100,> 100,46.4,26.8
CC(C)(C)OC(=O)NCCCCC(NC(=O)OCC1c2ccccc2-c2ccccc21)C(=O)N1CCCC1C(=O)NCC(N)=O (stereo not drawn) (Fmoc-Lys(Boc)-Pro-Gly-NH2; configuration not given here),> 100,> 100,> 100,> 100,33.1,> 100,34.5,> 100,> 100,> 100
CCOC(=O)c1ccc(C(=O)/C(C(C)=O)=C2\CCCN2C)n1C,> 100,> 100,92,> 100,> 100,> 100,> 100,> 100,> 100,> 100
Cc1cc(Cc2c(F)c(F)c(C(c3cc(C)no3)c3c(F)c(F)c(F)c(F)c3F)c(F)c2F)on1 (stereo not given),> 100,> 100,> 100,> 100,> 100,> 100,> 100,> 100,> 100,> 100
Nc1nc(N)c2ncn(Cc3ccccc3CCl)c2n1,> 100,> 100,> 100,> 100,> 100,> 100,> 100,> 100,> 100,> 100
Cc1cc(NC[C@H](O)[C@H](O)[C@H](O)CO)c(Sc2cc(=O)[nH]c(=O)[nH]2)cc1C,> 62.5,> 62.5,> 62.5,> 62.5,> 62.5,> 62.5,> 62.5,> 62.5,> 62.5,> 62.5
O=C1[C@@H]2[C@@H](c3ccccc3)[C@]2(Cl)C(=O)[C@H]2[C@H](c3ccccc3)[C@@]12Cl,> 100,> 100,> 100,> 100,> 100,> 100,> 100,> 100,> 100,> 100
CCCCCCCCCCCCOP(=O)(O)OCC(N)C(=O)O (stereo not given),> 100,51.8,> 100,> 100,26.7,33.3,> 100,64,61.7,> 100
CC(C)(C)c1cc(C2=NN(c3ccccc3)C(c3ccccc3)C2)cc(C(C)(C)C)c1O (stereo not given),> 100,> 100,> 100,> 100,> 100,> 100,> 100,> 100,> 100,> 100
CCCCCCOP(=O)(OCCCCCC)C(NC(=O)OCC)(C(F)(F)F)C(F)(F)F,> 100,72.2,> 100,> 100,> 100,> 100,> 100,50.1,44.1,> 100
CCn1cc(C(=O)O)c(=O)c2cc3c(cc21)S(=O)(=O)CC3,> 100,> 100,> 100,> 100,> 100,> 100,> 100,> 100,> 100,> 100
COCOc1c(C(O[Si](C)(C)C(C)(C)C)c2cnc(Sc3ccccc3)n2C)ccc(OC)c1OC (stereo not given),> 100,3.05,> 100,3.8,3.1,6.17,8.93,4.02,3.21,2.74
Cc1ccc(O)c(-c2cc(-c3cccc(Cl)c3)c(C#N)c(N)n2)c1,70.4,31.6,> 100,40.8,30,49.7,58.1,> 100,29.2,> 100
Cc1cc(C)c2c(n1)S(=O)(=O)N(CCCN1CCN(c3cccc(C(F)(F)F)c3)CC1)c1c-2nn(C)c1C,> 100,> 100,> 100,> 100,> 100,> 100,> 100,> 100,> 100,> 100
Fc1ccc2nc3n(c2c1)C(c1c(Cl)cccc1Cl)SC3 (stereo not given),> 100,> 100,> 100,> 100,> 100,> 100,> 100,> 100,> 100,> 100
COC(=O)C1CCC(=O)N1C(c1ccc(OC)cc1)c1ccc(OC)cc1 (stereo not given),> 100,> 100,> 100,> 100,> 100,> 100,> 100,> 100,> 100,> 100
CC(C)C1=CCC2C(=C1)CCC1C(C)(C(=O)O)CCCC21C (stereo not given) (tested in a mixture with another compound),> 100,> 100,> 100,> 100,> 100,> 100,> 100,> 100,> 100,> 100
